Measurements reported in patent US10358454B2, “Marinopyrrole derivatives and methods of making and using same” (H. LEE MOFFITT CANCER CENTER AND RESEARCH INSTITUTE, INC., priority 2014, dated 2019).
Entries after “also recorded” stand apart in the source; their conditions may differ. Where two headings read alike, the source gives them in different places.

Tests used:
[1] = tested on: human breast cancer MDA-MB-468 cells; assay: Western blotting of MDA-MB-468 cells treated with marinopyrrole derivatives (Mcl-1, Bim, caspase 3); format: cell-based; details: 10 μM for 16 h
Description: The cells were then processed for western blotting according to a previously described methods (Balasis M E et al. Clin. Cancer Res. 2011, 17, 2852-2862). […] However, none of the cyclic marinopyrroles were active in intact cells.
(§1) ELISAs were performed using a modified version of a previously described procedure (Doi K et al. J. Biol. Chem. 2012, 287, 10224-10235). Briefly, 40 nM of biotinylated Bim BH3 peptide (Biomatik) in SuperBlock blocking buffer (Pierce) was incubated in high-binding capacity streptavidin-coated plates (Pierce) for 2 h. Compounds were diluted in 120 μl of PBS containing 10 nM of GST-Mcl-1 or GST-Bcl-xL in 1.5 mL tubes for 15 min. Wells were washed with wash buffer (PBS containing 0.05% Tween-20) and then 100 μL of the compound/GST-protein mixture was transferred to the wells. The plates were incubated for 2 h, and then the wells were washed with wash buffer. HRP-conjugated anti-GST antibody (Bethyl Laboratories) was diluted 1:2000 in SuperBlock and 100 μL was transferred to each well. The plate was incubated for 1 h, and then the wells were washed with wash buffer followed by PBS. 100 μL of SureBlue TMB Microwell Peroxidase Substrate (VWR) was added to each well and plates were developed for 5-10 min. 100 μL of 1 N HCl was added to each well to stop the reaction and absorbance was read at 450 nm using a μQuant plate reader (Bio-Tek).

[2] = molecular target: Mcl-1/Bim (Homo sapiens, UniProt Q07820); assay: Mcl-1/Bim ELISA (GST-Mcl-1 binding to biotinylated Bim BH3 peptide); details: for selectivity profile Mcl-1 vs Bcl-xL in words: from Mcl-1/Bim and Bcl-xL/Bim ELISA; for selectivity for Mcl-1 over Bcl-xL (Mcl-1/Bim over Bcl-xL/Bim): ratio of ELISA IC50 values; for fold more potent than (±)-1 (1) against Mcl-1/Bim: relative to (±)-1
Chain of Mcl-1/Bim (Q07820 whole entry): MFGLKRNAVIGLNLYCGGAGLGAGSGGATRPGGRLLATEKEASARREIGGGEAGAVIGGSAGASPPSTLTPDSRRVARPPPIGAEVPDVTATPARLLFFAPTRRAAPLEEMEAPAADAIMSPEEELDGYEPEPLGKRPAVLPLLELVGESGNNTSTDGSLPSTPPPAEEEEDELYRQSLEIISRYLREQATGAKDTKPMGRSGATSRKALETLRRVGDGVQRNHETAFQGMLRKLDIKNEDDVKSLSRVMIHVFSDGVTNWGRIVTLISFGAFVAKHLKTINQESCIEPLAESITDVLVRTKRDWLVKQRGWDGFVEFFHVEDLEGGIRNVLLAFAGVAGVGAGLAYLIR
Description: as §1
(§2) ELISAs were performed using a similar procedure as previously described (Doi K, et al. J. Biol. Chem. 2012, 287, 10224-10235). Briefly, 40 nM of biotinylated Bim BH3 peptide (Biomatik) in SuperBlock blocking buffer (Pierce) was incubated in high-binding capacity streptavidin-coated plates (Pierce) for 2 h. Compounds were diluted in 120 μl of PBS containing 10 nM of GST-Mcl-1 or GST-Bcl-xL in 1.5 mL tubes for 15 min. Wells were washed with wash buffer (PBS containing 0.05% Tween-20) and then 100 μL of the compound/GST-protein mixture was transferred to the wells. The plates were incubated for 2 h, and then wells were washed with wash buffer. HRP-conjugated anti-GST antibody (Bethyl Laboratories) was diluted 1:2000 in SuperBlock and 100 μL was transferred to each well. The plate was incubated for 1 h, and then wells were washed with wash buffer followed by PBS. 100 μL of SureBlue TMB Microwell Peroxidase Substrate (VWR) was added to each well and plates were developed for 5-10 min. 100 μL of 1 N HCl was added to each well to stop the reaction and absorbance was read at 450 nm using μQuant plate reader (Bio-Tek).

[3] = tested on: cultured human cancer cells; assay: Induction of apoptosis in cultured human cancer cells; format: cell-based; details: intact cell studies
[4] = molecular target: Bcl-xL/Bim (Homo sapiens, UniProt Q07817); assay: Bcl-xL/Bim ELISA (GST-Bcl-xL binding to biotinylated Bim BH3 peptide); details: for fold more potent than (±)-1 (1) against Bcl-xL/Bim: relative to (±)-1
Chain of Bcl-xL/Bim (Q07817 whole entry): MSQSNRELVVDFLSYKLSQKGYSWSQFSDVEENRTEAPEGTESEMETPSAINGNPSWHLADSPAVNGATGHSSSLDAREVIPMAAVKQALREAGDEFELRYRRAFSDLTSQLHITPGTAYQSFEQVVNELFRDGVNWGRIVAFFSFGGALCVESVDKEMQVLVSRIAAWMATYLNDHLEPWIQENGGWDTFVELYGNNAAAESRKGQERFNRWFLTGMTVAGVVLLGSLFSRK
Description: as §1, §2

[5] = Table 2-B, n ≥ 3, read-out: Mcl-1/Bim IC50 (average ± SEM)
[6] = Table 3-A structure I, Mcl-1 at 10 nM, n ≥ 3, read-out: Mcl-1-Bim IC50 (average ± SEM)
[7] = read-out: IC50 to inhibit the binding of Mcl-1 to Bim
[8] = Table 2-B, n ≥ 3 unless specified, read-out: Bcl-xL/Bim IC50 (average ± SEM)
[9] = Table 3-A structure I, Bcl-xL at 10 nM, n ≥ 3, read-out: Bcl-xL-Bim IC50 (average ± SEM)
[10] = read-out: IC50 to inhibit Bcl-xL/Bim binding
[11] = Table 1, Mcl-1 at 10 nM, n ≥ 3, read-out: Mcl-1-Bim IC50 (average ± SEM)
[12] = Table 1, Bcl-xL at 10 nM, n ≥ 3, read-out: Bcl-xL-Bim IC50 (average ± SEM)
[13] = Table 3-C structure IV, n ≥ 3, read-out: Mcl-1-Bim IC50 (average ± SEM)
[14] = Table 3-C structure IV, n ≥ 3 (IV-1: n = 2), read-out: Bcl-xL-Bim IC50 (average ± SEM)

O=C(c1ccccc1O)c1[nH]c(Cl)c(Cl)c1-n1c(C(=O)c2ccccc2O)cc(Cl)c1Cl (single isomer, unassigned) [(−)-1, reference compound]
effect on levels of Mcl-1 and Bim and cleavage of caspase 3 [1]: able to decrease Mcl-1 and Bim and to cleave caspas 3

C=Cc1ccc(C(=O)c2[nH]c(Cl)c(Cl)c2-n2c(C(=O)c3ccc(C=C)cc3O)cc(Cl)c2Cl)c(O)c1 [Compound 1-4, (4,4′,5,5′-Tetrachloro-1′H-1,3′-bipyrrole-2,2′-diyl)bis((2-hydroxy-4-vinylphenyl)methanone)]
selectivity profile Mcl-1 vs Bcl-xL in words [2]: dual Mcl-1 and Bcl-XL antagonists
induction of apoptosis [3]: induced apoptosis

CCc1ccc(C(=O)c2[nH]c(Cl)c(Cl)c2-n2c(C(=O)c3ccc(CC)cc3O)cc(Cl)c2Cl)c(O)c1 [Compound 1-5, (4,4′,5,5′-Tetrachloro-1′H-1,3′-bipyrrole-2,2′-diyl)bis((4-ethyl-2-hydroxyphenyl)methanone)]
IC50 [2, 5]: 2.1 ± 0.5 µM
IC50 [2, 6]: 2.1 ± 0.5 µM
selectivity profile Mcl-1 vs Bcl-xL in words [2]: dual Mcl-1 and Bcl-XL antagonists
IC50 [2, 7]: 2.1 µM
induction of apoptosis [3]: induced apoptosis
IC50 [4, 8]: 3.9 ± 1.2 µM
IC50 [4, 9]: 3.9 ± 1.3 µM

O=C(O)Cn1cc(-c2ccc(C(=O)c3[nH]c(Cl)c(Cl)c3-n3c(C(=O)c4ccc(-c5cn(CC(=O)O)nn5)cc4O)cc(Cl)c3Cl)c(O)c2)nn1 [Compound 1-26, 2,2′-(4,4′-((4,4′,5,5′-Tetrachloro-1′H-1,3′-bipyrrole-2,2′-dicarbonyl)bis(3-hydroxy-4,1-phenylene))bis(1H-1,2,3-triazole-4,1-diyl))diacetic acid]
IC50 ([2]; Table 2-A, n ≥ 3, read-out: Mcl-1/Bim IC50 (average ± SEM)): 16.5 ± 1.9 µM
IC50 ([2]; Table 3-B structure II, n ≥ 3, read-out: Mcl-1-Bim IC50 (average ± SEM)): 16.5 ± 1.9 µM
selectivity for Mcl-1 over Bcl-xL (Mcl-1/Bim over Bcl-xL/Bim) [2]: 3.0 fold
IC50 [2, 7]: 16.5 µM
activity against Bcl-xL/Bim in words [4]: not tolerated; also recorded: not active
IC50 ([4]; Table 2-A, n ≥ 3, read-out: Bcl-xL/Bim IC50 (average ± SEM)): > 50 µM
IC50 ([4]; Table 3-B structure II, n ≥ 3, read-out: Bcl-xL-Bim IC50 (average ± SEM)): > 50 µM

COC(=O)c1ccc(C(=O)c2[nH]c(Cl)c(Cl)c2-n2c(C(=O)c3ccc(C(=O)OC)cc3O)cc(Cl)c2Cl)c(O)c1 [Compound I-17, Dimethyl-4,4′-(4,4′,5,5′-tetrachloro-1′H-[1,3′-bipyrrole]-2,2′-dicarbonyl)bis(3-hydroxybenzoate)]
activity against Mcl-1/Bim in words [2]: showed activity
IC50 [2, 6]: 16.9 ± 2.3 µM
effect on levels of Mcl-1 and Bim and cleavage of caspase 3 [1]: significant decrease in the levels of Mcl-1 and Bim, and cleavage of caspase 3
IC50 [4, 9]: > 100 µM
IC50 [4, 10]: > 100 µM

CCOP(=O)(OCC)c1ccc(C(=O)c2[nH]c(Cl)c(Cl)c2-n2c(C(=O)c3ccc(P(=O)(OCC)OCC)cc3O)cc(Cl)c2Cl)c(O)c1 [Compound I-19, tetraethyl((4,4′,5,5′-tetrachloro-1′H-[1,3′-bipyrrole]-2,2′-dicarbonyl)bis(3-hydroxy-4,1-phenylene))bis(phosphonate)]
IC50 ([2]; read-out: Mcl-1-Bim IC50 (average ± SEM)): 7.7 ± 2.2 µM
effect on levels of Mcl-1 and Bim and cleavage of caspase 3 [1]: little effect on Mcl-1, Bim or caspase 3
IC50 [4, 9]: > 100 µM
IC50 [4, 10]: > 100 µM

O=C1c2ccc(OS(=O)(=O)C(F)(F)F)cc2Oc2c(Cl)cc(C(=O)c3ccc(OS(=O)(=O)C(F)(F)F)cc3O)n2-c2c1[nH]c(Cl)c2Cl [IV-1, 3-Hydroxy-4-(2,3,7-trichloro-13-oxo-10-(((trifluoromethyl)sulfonyl)oxy)-1,13 dihydrobenzo[g]di-pyrrolo[2,1-b:3′,2′-d][1,3]oxazocine-5-carbonyl)phenyl trifluoromethanesulfonate]
IC50 [2, 11]: 1.4 ± 0.3 µM
fold more potent than (±)-1 (1) against Mcl-1/Bim [2]: six
IC50 [4, 12]: 2.3 ± 1.1 µM
fold more potent than (±)-1 (1) against Bcl-xL/Bim [4]: seven-fold

O=C1c2ccc(O)cc2Oc2c(Cl)cc(C(=O)c3ccc(O)cc3O)n2-c2c1[nH]c(Cl)c2Cl [IV-2, 2,3,7-Trichloro-5-(2,4-dihydroxybenzoyl)-10-hydroxybenzo[g]dipyrrolo[2,1-b:3′,2′-d][1,3]oxazo-cin-13(1H)-one]
IC50 [2, 11]: 42.5 ± 6 µM
IC50 [2, 5]: 8 ± 1.6 µM
IC50 [2, 13]: 8 ± 1.6 µM
selectivity profile Mcl-1 vs Bcl-xL in words [2]: dual Mcl-1 and BclxL antagonists
IC50 [4, 12]: > 100 µM
IC50 [4, 8]: 9.5 ± 2.2 µM
IC50 [4, 14]: 9.5 ± 2.2 µM

COC(=O)c1ccc(C(=O)c2cc(Cl)c3n2-c2c([nH]c(Cl)c2Cl)C(=O)c2ccc(C(=O)OC)cc2O3)c(O)c1 [IV-3, Methyl-2,3,7-trichloro-5-(2-hydroxy-4-(methoxycarbonyl)benzoyl)-13-oxo-1,13-dihydrobenzo[g]-dipyrrolo[2,1-b:3′,2′-d][1,3]oxazocine-10-carboxylate]
IC50 [2, 11]: 4.3 ± 1.5 µM
IC50 [2, 5]: 4.1 ± 1.4 µM
IC50 [2, 13]: 4.1 ± 1.4 µM
fold more potent than (±)-1 (1) against Mcl-1/Bim [2]: two-fold
activity against Bcl-xL/Bim in words [4]: slight increase in potency
IC50 [4, 12]: 3.4 ± 0.9 µM
IC50 [4, 8]: 10.1 ± 2.2 µM
IC50 [4, 14]: 10.1 ± 2.2 µM
fold more potent than (±)-1 (1) against Bcl-xL/Bim [4]: seven-fold

O=C(O)c1ccc(C(=O)c2cc(Cl)c3n2-c2c([nH]c(Cl)c2Cl)C(=O)c2ccc(C(=O)O)cc2O3)c(O)c1 [IV-4, 5-(4-Carboxy-2-hydroxybenzoyl)-2,3,7-trichloro-13-oxo-1,13-dihydrobenzo[g]dipyrrolo[2,1-b:3′,2′-d][1,3]oxazocine-10-carboxylic acid]
IC50 [2, 11]: 66.6 ± 2.6 µM
IC50 [2, 5]: 3.9 ± 1.1 µM
IC50 [2, 13]: 3.9 ± 1.1 µM
IC50 [4, 12]: > 100 µM
IC50 [4, 8]: 18.3 ± 3 µM
IC50 [4, 14]: 18.3 ± 3 µM

O=C1c2ccc(P(=O)(O)O)cc2Oc2c(Cl)cc(C(=O)c3ccc(P(=O)(O)O)cc3O)n2-c2c1[nH]c(Cl)c2Cl [IV-6, 3-Hydroxy-4-(2,3,7-trichloro-13-oxo-10-phosphoryl-1,13-dihydrobenzo[g]dipyrrolo[2,1-b:3′,2′-d][1,3]oxazocine-5-carbonyl) phosphonic acid]
IC50 [2, 11]: > 100 µM
IC50 [2, 7]: > 100 µM
IC50 [4, 12]: > 100 µM
IC50 [4, 10]: > 100 µM

COc1ccccc1C(=O)c1c(-n2c(C(=O)c3ccccc3OC)cc(Cl)c2Cl)c(Cl)c(Cl)n1C [VI-11]
selectivity for Mcl-1 over Bcl-xL (Mcl-1/Bim over Bcl-xL/Bim) [2]: 4.2 fold
induction of apoptosis [3]: induced apoptosis

Cn1c(Cl)c(Cl)c(-n2c(C(=O)c3ccccc3O)cc(Cl)c2Cl)c1C(=O)c1ccccc1O [VI-12]
IC50 [2, 5]: > 100 µM
IC50 ([2]; Table 3-E structure VI, n ≥ 3, read-out: Mcl-1-Bim IC50 (average ± SEM)): > 100 µM
IC50 [2, 7]: > 100 µM
induction of apoptosis [3]: induced apoptosis
selectivity for Bcl-xL over Mcl-1 ([4]; ratio of ELISA IC50 values): 12.7 fold
IC50 [4, 10]: 7.1 µM
